Here are results for five compounds from patent US7728012B2, “Carboxamide compounds and their use as calpain inhibitors” (Abbott GmbH & Co. KG, priority 2006, dated 2010).

Common to all, as to assay type: biochemical
Test [1] deals with T1, calpain-I isolated from human erythrocytes (Homo sapiens, UniProt P07384).
T1 construct: calpain-I—isolated from human erythrocytes; purchased Calbiochem 208713; host or cells: human erythrocytes (tissue isolate)
T1 sequence (P07384 1-714): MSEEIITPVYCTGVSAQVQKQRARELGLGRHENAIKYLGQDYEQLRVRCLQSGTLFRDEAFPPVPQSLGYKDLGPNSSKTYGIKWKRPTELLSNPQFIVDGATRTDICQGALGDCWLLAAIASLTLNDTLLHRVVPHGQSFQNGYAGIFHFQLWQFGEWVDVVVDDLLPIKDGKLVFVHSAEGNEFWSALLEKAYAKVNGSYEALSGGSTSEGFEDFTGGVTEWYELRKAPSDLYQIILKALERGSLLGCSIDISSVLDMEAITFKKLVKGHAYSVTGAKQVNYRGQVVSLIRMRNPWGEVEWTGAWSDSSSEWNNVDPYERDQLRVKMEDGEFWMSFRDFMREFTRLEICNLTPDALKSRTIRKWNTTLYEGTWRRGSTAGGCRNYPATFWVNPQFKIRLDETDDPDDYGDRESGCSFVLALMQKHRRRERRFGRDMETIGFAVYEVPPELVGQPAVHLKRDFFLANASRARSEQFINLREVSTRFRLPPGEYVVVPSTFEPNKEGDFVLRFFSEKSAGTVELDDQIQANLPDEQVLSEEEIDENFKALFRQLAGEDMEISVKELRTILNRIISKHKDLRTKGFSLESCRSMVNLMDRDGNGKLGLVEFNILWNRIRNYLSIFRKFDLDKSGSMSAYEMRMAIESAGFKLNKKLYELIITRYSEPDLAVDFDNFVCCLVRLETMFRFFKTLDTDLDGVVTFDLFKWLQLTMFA
T1 sequence (P04632 1-268 partner): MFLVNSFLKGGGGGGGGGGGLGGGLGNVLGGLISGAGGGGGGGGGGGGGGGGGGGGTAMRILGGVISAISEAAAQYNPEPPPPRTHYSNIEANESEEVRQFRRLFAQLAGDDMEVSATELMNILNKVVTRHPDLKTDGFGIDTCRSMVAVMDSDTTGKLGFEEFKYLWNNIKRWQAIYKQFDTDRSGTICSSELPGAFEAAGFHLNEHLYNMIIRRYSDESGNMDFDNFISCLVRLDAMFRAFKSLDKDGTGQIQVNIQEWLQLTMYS
The test is described as follows: Calpain I kinetic fluorescence enzyme inhibition assay. The settings on record: apparent Ki from IC50 by Cheng-Prussoff; average of 2 to 4 dose-effect plots.

The target of test [2] is T2, cathepsin B isolated from human liver (Homo sapiens, UniProt P07858).
T2 construct: cathepsin B—isolated from human liver; purchased Calbiochem 219362; host or cells: human liver (tissue isolate)
Kind of test: Cathepsin B kinetic fluorescence enzyme inhibition assay. The settings on record: selectivity ratio versus calpain I. Summed up: (§1)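 Kinetic fluorescence (ex 390/em 460 nm) at room temperature in 50 mM MES, 2 mM EDTA, 0.05% Brij 35, 2.5 mM L-cysteine, pH 6.0. Cathepsin B (liver, 0.25 nM) with 100 μM Z-Phe-Arg-AMC; cathepsin L (liver, 1 nM) with 2 μM Z-Phe-Arg-AMC; recombinant E. coli cathepsin S (0.5 nM) with 20 μM Z-Val-Val-Arg-AMC. Ki via Cheng-Prusoff.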

Test [3] concerns the target T3, cathepsin K activated from recombinant human procathepsin K (Homo sapiens, UniProt P43235).
T3 construct: purchased Calbiochem 342001; host or cells: E. coli
T3 sequence (P43235 115-329): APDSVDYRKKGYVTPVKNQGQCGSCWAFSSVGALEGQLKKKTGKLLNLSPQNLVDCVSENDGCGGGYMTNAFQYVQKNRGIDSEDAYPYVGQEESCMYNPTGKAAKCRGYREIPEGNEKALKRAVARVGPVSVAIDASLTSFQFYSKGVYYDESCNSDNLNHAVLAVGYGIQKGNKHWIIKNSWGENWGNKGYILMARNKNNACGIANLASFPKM
The test is described as follows: Cathepsin K kinetic fluorescence enzyme inhibition assay. The settings on record: selectivity ratio versus calpain I.

Test [4] concerns the target T4, cathepsin L isolated from human liver (Homo sapiens, UniProt P07711).
T4 construct: cathepsin L—isolated from human liver; purchased Calbiochem 219402; host or cells: human liver (tissue isolate)
The test is described as follows: Cathepsin L kinetic fluorescence enzyme inhibition assay. The settings on record: selectivity ratio versus calpain I. An outline of the steps: as §1

Test [5] concerns the target T5, recombinant human cathepsin S (Homo sapiens, UniProt P25774).
T5 construct: purchased Calbiochem 219343; host or cells: E. coli
Kind of test: Cathepsin S kinetic fluorescence enzyme inhibition assay. The following applies: selectivity ratio versus calpain I. An outline of the steps: as §1

T4 sequence (P07711 114-333): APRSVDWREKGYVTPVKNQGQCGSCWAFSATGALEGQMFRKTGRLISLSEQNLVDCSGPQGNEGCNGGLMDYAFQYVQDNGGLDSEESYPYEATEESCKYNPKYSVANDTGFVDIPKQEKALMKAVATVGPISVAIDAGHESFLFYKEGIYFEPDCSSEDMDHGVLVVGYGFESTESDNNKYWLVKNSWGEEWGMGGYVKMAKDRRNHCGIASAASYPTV
T5 sequence (P25774 115-331): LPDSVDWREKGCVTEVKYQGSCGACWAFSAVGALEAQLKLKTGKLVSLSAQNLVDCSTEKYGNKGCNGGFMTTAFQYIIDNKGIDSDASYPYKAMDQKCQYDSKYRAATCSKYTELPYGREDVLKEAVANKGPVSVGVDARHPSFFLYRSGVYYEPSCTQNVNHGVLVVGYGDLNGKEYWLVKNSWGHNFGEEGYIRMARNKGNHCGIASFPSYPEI

As to `CS(=O)(=O)Nc1cnc(-n2ccc(-c3ccccc3)n2)c(C(=O)NC(Cc2ccccc2)C(=O)C(N)=O)c1` (stereo not shown) [Example 158, N-[3-Amino-2,3-dioxo-1-(phenylmethyl)propyl]-5-[(methylsulfonyl)amino]-2-(3-phenyl-1H-pyrazol-1-yl)pyridine-3-carboxamide], the Ki in test [1] fell in the range of 40 to 100 nM. For the same compound, the “Sel cat. B (Ki(cathepsin B)/Ki(calpain) ratio)” value in test [2] is listed as “++ (Ki(cathepsin B)/Ki(calpain) ratio of ≧30)”. In addition, in test [3], the “Sel cat. K (Ki(cathepsin K)/Ki(calpain) ratio)” value is “++ (Ki(cathepsin K)/Ki(calpain) ratio of ≧30)”. The “Sel cat. L (Ki(cathepsin L)/Ki(calpain) ratio)” value in test [4] is “++ (Ki(cathepsin L)/Ki(calpain) ratio of ≧50)”. The “Sel cat. S (Ki(cathepsin S)/Ki(calpain) ratio)” value in test [5] is on record as “++ (Ki(cathepsin S)/Ki(calpain) ratio of ≧100)”.
Turning to `NC(=O)C(=O)C(Cc1ccccc1)NC(=O)c1cccnc1-n1ccc(-c2cccc3cccnc23)n1` (stereo not shown) [Example 160, N-[3-amino-2,3-dioxo-1-(phenylmethyl)propyl]-2-(3-quinolin-8-yl-1H-pyrazol-1-yl)pyridine-3-carboxamide], the Ki in test [1] is 40 to 100 nM. For the same compound, the “Sel cat. B (Ki(cathepsin B)/Ki(calpain) ratio)” value in test [2] is listed as “++ (Ki(cathepsin B)/Ki(calpain) ratio of ≧30)”. Besides, the “Sel cat. K (Ki(cathepsin K)/Ki(calpain) ratio)” value in test [3] was “++ (Ki(cathepsin K)/Ki(calpain) ratio of ≧30)”. In addition, the “Sel cat. L (Ki(cathepsin L)/Ki(calpain) ratio)” value in test [4] is recorded as “++ (Ki(cathepsin L)/Ki(calpain) ratio of ≧50)”. For the same compound, the “Sel cat. S (Ki(cathepsin S)/Ki(calpain) ratio)” value in test [5] was “++ (Ki(cathepsin S)/Ki(calpain) ratio of ≧100)”.
On the same counts, the results for `NC(=O)C(=O)C(Cc1cccc(F)c1)NC(=O)c1cccnc1-n1ccc(-c2ccccc2OC(F)(F)F)n1` (stereo not shown) [Example 162, N-{3-Amino-1-[(3-fluorophenyl)methyl]-2,3-dioxopropyl}-2-(3-{2-[(trifluoromethyl)oxy]phenyl}-1H-pyrazol-1-yl)pyridine-3-carboxamide] are 40 to 100 nM, “++ (Ki(cathepsin B)/Ki(calpain) ratio of ≧30)”, “++ (Ki(cathepsin K)/Ki(calpain) ratio of ≧30)”, “++ (Ki(cathepsin L)/Ki(calpain) ratio of ≧50)” and “++ (Ki(cathepsin S)/Ki(calpain) ratio of ≧100)”.
As for `NC(=O)C(=O)C(Cc1ccccc1)NC(=O)c1cccnc1-n1ccc(-c2cc(C(F)(F)F)ccc2CN2CCOCC2)n1` (stereo not shown) [Example 163, N-[3-Amino-2,3-dioxo-1-(phenylmethyl)propyl]-2-{3-[2-(morpholin-4-ylmethyl)-5-(trifluoromethyl)phenyl]-1H-pyrazol-1-yl}pyridine-3-carboxamide], the Ki in test [1] was in the range of 40 to 100 nM. The “Sel cat. B (Ki(cathepsin B)/Ki(calpain) ratio)” value in test [2] is recorded as “+ (10≦Ki(cathepsin B)/Ki(calpain)<30)”. The “Sel cat. K (Ki(cathepsin K)/Ki(calpain) ratio)” value in test [3] is listed as “+ (10≦Ki(cathepsin K)/Ki(calpain)<30)”. Also, the “Sel cat. L (Ki(cathepsin L)/Ki(calpain) ratio)” value in test [4] is “+ (30≦Ki(cathepsin L)/Ki(calpain)<50)”. In addition, the “Sel cat. S (Ki(cathepsin S)/Ki(calpain) ratio)” value in test [5] is “++ (Ki(cathepsin S)/Ki(calpain) ratio of ≧100)”.
`NC(=O)C(=O)C(Cc1ccccc1)NC(=O)c1cccnc1-n1ccc(-c2cccc3c2OCC3)n1` (stereo not shown) [Example 164, N-[3-Amino-2,3-dioxo-1-(phenylmethyl)propyl]-2-[3-(2,3-dihydro-1-benzofuran-7-yl)-1H-pyrazol-1-yl]pyridine-3-carboxamide]: the Ki in test [1] is at most 40 nM. Also, in test [2], the “Sel cat. B (Ki(cathepsin B)/Ki(calpain) ratio)” value is on record as “+ (10≦Ki(cathepsin B)/Ki(calpain)<30)”. Further, the “Sel cat. K (Ki(cathepsin K)/Ki(calpain) ratio)” value in test [3] was “++ (Ki(cathepsin K)/Ki(calpain) ratio of ≧30)”. Further, the “Sel cat. L (Ki(cathepsin L)/Ki(calpain) ratio)” value in test [4] is given as “++ (Ki(cathepsin L)/Ki(calpain) ratio of ≧50)”. Also, the “Sel cat. S (Ki(cathepsin S)/Ki(calpain) ratio)” value in test [5] is on record as “++ (Ki(cathepsin S)/Ki(calpain) ratio of ≧100)”.
